Four molecules from ChEMBL document CHEMBL5052832, “Inhibition of ngly1 for the treatment of cancer” (2021) can be followed below.

Data set [1] has as its system UACC-257. The data set can be described thus: Antiproliferative activity against doxycycline-induced NGLY1 knocked down human UACC-257 cells at 20 uM in presence of dacarbazine assessed as decrease in growth inhibition after 72 hrs by MTT assay. Type of data set: functional, cell-based.
A short description of data set [2]: Antiproliferative activity against human HDF418 cells at 10 to 1000 uM assessed as decrease in cell viability. Type of data set: toxicity, cell-based. Particulars: hdf418, 1000 µM, dose 10-1000 µM.
Data set [3] concerns the target T1, Peptide-N(4)-(N-acetyl-beta-glucosaminyl)asparagine amidase (Homo sapiens) (UniProt Q96IV0).
T1 sequence (whole entry): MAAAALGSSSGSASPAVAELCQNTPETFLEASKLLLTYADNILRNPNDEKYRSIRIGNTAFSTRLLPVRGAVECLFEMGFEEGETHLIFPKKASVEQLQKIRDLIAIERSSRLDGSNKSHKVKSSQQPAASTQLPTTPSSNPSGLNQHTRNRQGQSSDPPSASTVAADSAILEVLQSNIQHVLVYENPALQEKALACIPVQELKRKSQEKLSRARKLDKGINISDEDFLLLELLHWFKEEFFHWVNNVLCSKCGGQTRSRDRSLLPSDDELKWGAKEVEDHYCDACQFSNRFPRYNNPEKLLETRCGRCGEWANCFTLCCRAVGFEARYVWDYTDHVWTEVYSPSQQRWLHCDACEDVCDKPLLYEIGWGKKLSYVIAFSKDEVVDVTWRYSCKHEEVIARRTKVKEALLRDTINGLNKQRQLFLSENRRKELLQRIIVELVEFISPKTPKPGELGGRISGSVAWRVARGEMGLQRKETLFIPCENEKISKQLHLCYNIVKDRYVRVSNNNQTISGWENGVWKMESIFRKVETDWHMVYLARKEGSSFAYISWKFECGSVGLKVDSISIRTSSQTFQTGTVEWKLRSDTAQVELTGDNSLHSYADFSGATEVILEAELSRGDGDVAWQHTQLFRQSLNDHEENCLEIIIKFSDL
In words: Inhibition of NGLY1 in human UACC-257 cells at 200 uM assessed as increase in IFN-beta1 production measured after 48 hrs. Type of data set: cell-based.

Data set [4] addresses T1, Peptide-N(4)-(N-acetyl-beta-glucosaminyl)asparagine amidase (Homo sapiens). The data set can be described thus: Inhibition of NGLY1 in human HDF51 cells at 200 uM assessed as increase in IFN-beta1 production measured after 48 hrs. Type of data set: cell-based.
The target is the same in data set [5]. In words: Inhibition of NGLY1 in human UACC-257 cells at 200 uM assessed as increase in IL-29 production measured after 48 hrs. Type of data set: cell-based.
For data set [6] the target is unchanged. The data set can be described thus: Inhibition of NGLY1 in human SK-MEL-2 cells at 200 uM assessed as increase in IL-29 production measured after 48 hrs. Type of data set: cell-based.
Data set [7] in a line: Antiproliferative activity against human HDF51 cells at 10 to 1000 uM assessed as decrease in cell viability. Type of data set: toxicity, cell-based. Particulars: hdf51, 1000 µM, dose 10-1000 µM.
In data set [8] the test system is SK-MEL-2. In words: Antiproliferative activity against human SK-MEL-2 cells at 10 to 1000 uM assessed as decrease in cell viability. Type of data set: functional, cell-based. The note with it: dose 10-1000 µM.
Data set [9] deals with T1, Peptide-N(4)-(N-acetyl-beta-glucosaminyl)asparagine amidase (Homo sapiens). The data set can be described thus: Inhibition of NGLY1 in human SK-MEL-2 cells at 200 uM assessed as increase in IFN-beta1 production measured after 48 hrs. Type of data set: cell-based.
Data set [10] concerns UACC-257. The data set can be described thus: Antiproliferative activity against human UACC-257 cells at 10 to 1000 uM assessed as decrease in cell viability. Type of data set: functional, cell-based. The note with it: dose 10-1000 µM.
In data set [11] the target is T1, Peptide-N(4)-(N-acetyl-beta-glucosaminyl)asparagine amidase (Homo sapiens). The data set can be described thus: Inhibition of NGLY1 in human HDF51 cells at 200 uM assessed as increase in IL-29 production measured after 48 hrs. Type of data set: cell-based.
The target is the same in data set [12]. In words: Inhibition of NGLY1 in human HEK293T cells at 200 uM assessed as retention of N-glycans on full-length NFE2L1 measured by electrophoretic mobility shift assay. Type of data set: cell-based.
In the next data set the test system is Malme-3M. In words: Antiproliferative activity against doxycycline-induced NGLY1 knocked down human Malme-3M cells at 20 uM in presence of dacarbazine assessed as decrease in growth inhibition after 72 hrs by MTT assay. Type of data set: functional, cell-based.
Data set [13] concerns SK-MEL-2. In words: Antiproliferative activity against human SK-MEL-2 cells assessed as decrease in cell viability in presence of bortezomib. Type of data set: functional, cell-based.
Data set [14] has as its system SK-MEL-2. In words: Antiproliferative activity against human SK-MEL-2 cells assessed as decrease in cell viability in presence of dacarbazine. Type of data set: functional, cell-based.

Each structure is given as a SMILES string. The source made the active and inactive calls. The rule behind the calls is not given here.

For the molecule `C=CS(=O)(=O)N[C@@H](CC(=O)N[C@@H]1O[C@H](COC(C)=O)[C@@H](OC(C)=O)[C@H](OC(C)=O)[C@H]1NC(C)=O)C(=O)NCCC`, the result (with UACC-257 [1]; in [3]; in [5]; in data set [6]; in the data set on SK-MEL-2 [8]; in data set [9]) was Active. Moreover, the outcome in the data set with UACC-257 [10] was Active. The Activity result in [2] and in data set [7] was “Non-Toxic” throughout. The outcome in data set [4] and in [11] was inactive.
As to `CCCNC(=O)[C@H](CC(=O)N[C@@H]1O[C@H](COC(C)=O)[C@@H](OC(C)=O)[C@H](OC(C)=O)[C@H]1NC(C)=O)NC(=O)CCl`, the result (in the data set with UACC-257 [1]; in [3]; in the data set on Malme-3M; in data set [5]; in data set [6]; with SK-MEL-2 [13]) was Active. Moreover, the result (in the data set on SK-MEL-2 [8]; in data set [9]; in the data set with UACC-257 [10]) was Active. Besides, the Activity result in data set [2] and in data set [7] was “Non-Toxic” each time. Moreover, in [12], the inhibition entry was “Active”.
`C=CC(=O)N[C@@H](CC(=O)N[C@@H]1O[C@H](COC(C)=O)[C@@H](OC(C)=O)[C@H](OC(C)=O)[C@H]1NC(C)=O)C(=O)NCCC`: the outcome (in the data set on SK-MEL-2 [14]; in the data set on UACC-257 [1]; in data set [3]; in data set [5]; in [6]; in the data set on SK-MEL-2 [8]) was Active. In addition, the outcome (in data set [9]; with UACC-257 [10]) was Active. The Activity entry in data set [2] and in data set [7] was “Non-Toxic” throughout. Moreover, the outcome in [4] and in [11] was inactive.
In the case of `CCCNC(=O)[C@H](CC(=O)N[C@@H]1O[C@H](COC(C)=O)[C@@H](OC(C)=O)[C@H](OC(C)=O)[C@H]1NC(C)=O)NC(=O)/C=C/CN(C)C`, the outcome in the data set with UACC-257 [1], with SK-MEL-2 [8] and in the data set with UACC-257 [10] was Active. Besides, the Activity entry in data set [2] and in data set [7] was “Non-Toxic” each time.
